Results reported in PubChem BioAssay (NCI).
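Five compound concentrations were applied to cells in 96-well plates for 48 hours; endpoints were derived by simple linear interpolation of the resulting dose-response curve. GI50 is the concentration that inhibits growth by half. At the TGI there is no net growth.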

How the values were obtained:
Experiment in all cases: DTP human tumour cell line panel, 48 h
[1] = test system: NCI-H522 lung
[2] = test system: OVCAR-8 ovarian
[3] = test system: A549 NSCLC
[4] = test system: HL-60(TB) leukemia
[5] = test system: U251 CNS
[6] = test system: IGROV1 ovarian
[7] = test system: SF-268 CNS
[8] = test system: MCF7 breast
[9] = test system: HS 578T breast
[10] = test system: NCI/ADR-RES ovarian

Structure (SMILES) | TGI [1] [µM] | TGI [2] [µM] | TGI [3] [µM] | TGI [4] [µM] | TGI [5] [µM] | TGI [6] [µM] | TGI [7] [µM] | GI50 [8] [nM] | TGI [8] [µM] | GI50 [9] [µM] | TGI [9] [µM] | GI50 [1] [nM] | GI50 [2] [nM] | GI50 [3] [nM] | GI50 [5] [µM] | GI50 [6] [µM] | GI50 [7] [µM] | GI50 [10] [nM] | TGI [10] [µM] | GI50 [4] [nM]
COc1ccc(NC(=O)CC(=O)n2nc(C)c(N=Nc3ccccc3C(=O)O)c2C)cc1 | > 100 | > 100 | > 100 | > 100 | > 100 | > 100 | > 100 | – | – | – | – | – | – | – | – | – | – | – | – | –
O=c1c2cc3c(cc2c2cccc4c2n1CCC4)OCO3 | 42 | > 100 | > 100 | > 100 | 73.5 | > 100 | – | – | – | – | – | – | – | – | – | – | – | – | – | –
COc1ccc(-c2csc(NC(=O)CN3CCN(c4cc5c(cc4F)c(=O)c(C(=O)O)cn5C4CC4)CC3)n2)cc1 | > 100 | > 100 | > 100 | – | 13.9 | > 100 | > 100 | 2840 | > 100 | 9.82 | > 100 | 3480 | 3200 | 3470 | 3.03 | 7 | 4.28 | – | – | –
Cl.Fc1c[c-]c(-c2ccccn2)c(F)c1.[Pt].c1ccc([PH+](C[PH+](c2ccccc2)c2ccccc2)c2ccccc2)cc1 | – | 1.73 | 1.34 | 0.67 | – | – | – | 198 | 1.12 | 0.312 | 1.56 | – | 303 | 206 | – | – | – | 1610 | 5.84 | 233
CC(=O)OC1=CC2(OC(C)=O)CC(C)(C)C1C1C(=O)C=CC(=O)C12 (stereo not drawn) | > 52.4 | > 100 | > 100 | > 100 | > 100 | > 100 | > 100 | – | > 100 | – | – | – | – | – | – | – | – | – | > 100 | –
CC(=O)Nc1n[n+]([O-])c2cc(C)ccc2[n+]1[O-] | 5.53 | 16.3 | 12.3 | – | 14.2 | 5.33 | 19.7 | – | 3.66 | – | 40.7 | – | – | – | – | – | – | – | > 44.7 | –
Cc1ccc(NC(=O)CCc2n[nH]c(=S)o2)cc1 | > 100 | > 100 | > 100 | > 100 | > 100 | > 100 | > 100 | – | – | – | – | – | – | – | – | – | – | – | – | –
COc1cnc2c(c1)C(=O)c1c-2n(CCCN2CCC(O)CC2)c(=O)c2cc(Cl)ccc12 | 2.02 | 3.53 | 2.34 | 4.32 | 1.7 | – | 2.34 | 42.2 | 1.54 | 14.1 | 37.5 | 110 | 665 | 480 | 0.0904 | – | 0.211 | 167 | 2.31 | 929
N#CC1=C(O)NC(O)=C(C#N)C1c1ccc(C2C(C#N)=C(O)NC(O)=C2C#N)cc1 | 43.6 | > 100 | > 100 | 75.3 | > 100 | > 100 | > 100 | – | – | – | – | – | – | – | – | – | – | – | – | –
Cc1cc(Cl)ccc1C(=O)c1ccc2ccccc2c1C(=O)O | > 100 | > 100 | > 100 | > 100 | > 100 | > 100 | > 100 | – | > 100 | – | – | – | – | – | – | – | – | – | > 100 | –
c1ccc(OCc2nnc3n2N=C(c2ccccc2)CS3)cc1 | > 100 | > 100 | > 100 | > 100 | > 100 | > 100 | > 100 | – | – | – | – | – | – | – | – | – | – | – | – | –
O=c1[nH]cnc2c(COCCO)c[nH]c12 | > 100 | > 100 | – | > 100 | > 100 | > 100 | > 100 | – | – | – | – | – | – | – | – | – | – | – | – | –
CCOc1ccc2c(c1)c(CC(=O)O)cn2C | > 100 | > 100 | > 100 | > 100 | > 100 | – | > 100 | – | > 100 | – | > 100 | – | – | – | – | – | – | – | > 100 | –
OCCN(CCO)c1cccc(N(CCO)CCO)n1 | > 100 | > 100 | > 100 | > 100 | > 100 | – | > 100 | – | – | – | – | – | – | – | – | – | – | – | – | –
CCCCNc1ccc(Nc2ccccc2)cc1 | – | – | 52.9 | 5.35 | > 100 | 27.2 | > 100 | 3740 | 28 | 5.11 | 73.7 | – | – | 4380 | 3.89 | 5.61 | 13.3 | 21500 | > 100 | 2050
COc1cc(C(C)O)c[n+](CCC2CNc3ccccc32)c1 (stereo not drawn) | > 100 | > 100 | > 100 | > 100 | > 100 | > 100 | 93 | – | – | – | – | – | – | – | – | – | – | – | – | –
CCn1c(CCl)nc2c1C(=O)c1ccccc1C2=O | – | 2.95 | > 100 | 6.85 | 3.12 | 3.86 | 6.65 | – | 3.79 | – | 6.24 | – | – | – | – | – | – | – | 6.5 | –
COc1cccc(N2C(=O)C3C4C=C5c6ccccc6N(c6ccccc6)C5(C3C2=O)[C@H]2C(=O)N(c3cccc(OC)c3)C(=O)[C@@H]42)c1 (stereo partly drawn) | – | > 100 | > 100 | > 100 | > 100 | > 100 | > 100 | – | – | – | – | – | – | – | – | – | – | – | – | –
COC(=O)Cc1cc(=O)[nH]c2c1C(=O)CCC2 | > 100 | > 100 | > 100 | > 100 | > 100 | > 100 | > 100 | – | – | – | – | – | – | – | – | – | – | – | – | –
Cc1ccc(S(=O)(=O)N/N=C/C(C)C)cc1 | – | > 100 | > 100 | > 100 | > 100 | > 100 | > 100 | – | – | – | – | – | – | – | – | – | – | – | – | –
N#Cc1cccc(C=NC23CC4CC(CC(C4)C2)C3)c1 | > 100 | > 100 | > 100 | 42.2 | > 100 | > 100 | > 100 | – | – | – | – | – | – | – | – | – | – | – | – | –
O=[N+]([O-])c1cc2no[n+]([O-])c2cc1N1CCCCC1 | – | 5.74 | 42.8 | 5.29 | 20.2 | 8.83 | 41.2 | – | – | – | 72.5 | – | – | – | – | – | – | – | > 20.8 | –
COc1ccc(C(=O)C#Cc2c[nH]c(=O)[nH]c2=O)cc1 | 10.6 | 32.5 | > 59.6 | 23.3 | 22.7 | > 62.9 | 55.3 | – | – | – | – | – | – | – | – | – | – | – | – | –
C=C(C(=C)P(=S)(C(C)C)C(C)C)P(=S)(C(C)C)C(C)C | > 100 | > 100 | > 100 | > 100 | > 100 | > 100 | > 100 | – | – | – | – | – | – | – | – | – | – | – | – | –
